Experimental data published in patent US7582645B2, “Pyrimidine derivatives for treatment of hyperproliferative disorders” (Bayer Pharmaceuticals Corporation, priority 2003, dated 2009).
Structures can show the parent of a compound that is named as a salt.

Tested on: HCT116 cells
Experiment: HCT116 cytotoxic activity assay (Alamar Blue, 72 h)
Assay type: cell-based
Settings: Homo sapiens, HCT-116, 72 h compound exposure, greater than 500 nM but less than or equal to 2 μM
Protocol: Representative compounds of this invention were tested for cytotoxicity using the above-described assay procedure with the following results: […]

SMILES | IC50 [nM]
Nc1nc(Nc2ccc(Oc3c(F)cncc3F)cc2)cc(-c2ccccc2)n1 [Example 5, N^4-{4-[(3,5-difluoropyridin-4-yl)oxy]phenyl}-6-phenylpyrimidine-2,4-diamine] | 500 to 2000
CNC(=O)c1cc(Oc2ccc(Nc3cc(-c4ccoc4)nc(N)n3)cc2)ccn1 [Example 10, 4-(4-{[2-amino-6-(3-furyl)pyrimidin-4-yl]amino}-phenoxy)-N-methylpyridine-2-carboxamide] | 500 to 2000
Nc1nc(Nc2ccc(Oc3ccc(Cl)cc3)cc2)cc(-c2ccccc2)n1 [Example 12, N^4-[4-(4-chlorophenoxy)phenyl]-6-phenylpyrimidine-2,4-diamine] | 500 to 2000
COCCNC(=O)c1cc(Oc2ccc(Nc3cc(-c4ccccc4)nc(N)n3)cc2)ccn1 [Example 23, 4-{4-[(2-amino-6-phenylpyrimidin-4-yl)amino]phenoxy}-N-(2-methoxyethyl)pyridine-2-carboxamide] | 500 to 2000
CN1CCN(C(=O)c2cc(Oc3ccc(Nc4cc(-c5ccccc5)nc(N)n4)cc3)ccn2)CC1 [Example 26, N4*-[4-({2-[(4-methylpiperazin-1-yl)carbonyl]pyridin-4-yl}oxy)phenyl]-6-phenylpyrimidine-2,4-diamine trifluoroacetate] | 500 to 2000
CCNc1nc(Nc2ccc(Oc3ccnc(C(F)(F)F)c3)cc2)cc(-c2cccc(OC)c2)n1 [Example 30, N^2-ethyl-6-(3-methoxy-phenyl)-N^4-[4-(2-trifluoromethyl-pyridin-4-yloxy)-phenyl]-pyrimidine-2,4-diamine] | 500 to 2000
Nc1nc(Nc2ccc(Oc3ccnc(OCCN4CCOCC4)c3)cc2)cc(-c2ccccc2)n1 [Example 32, N^4-{4-[2-(2-morpholin-4-yl-ethoxy)-pyridin-4-yloxy]-phenyl}-6-phenyl-pyrimidine-2,4-diamine] | 500 to 2000
Nc1nc(Nc2ccc(Oc3ccnc(CNC(=O)c4ccc(F)cc4)c3)cc2)cc(-c2ccccc2)n1 [Example 41, N-[(4-{4-[(2-amino-6-phenylpyrimidin-4-yl)amino]phenoxy}pyridin-2-yl)methyl]-4-fluorobenzamide] | 500 to 2000
CCN(CC)C(=O)NCc1cc(Oc2ccc(Nc3cc(-c4ccccc4)nc(N)n3)cc2)ccn1 [Example 42, N′-[(4-{4-[(2-amino-6-phenylpyrimidin-4-yl)amino]phenoxy}pyridin-2-yl)methyl]-N,N-diethylurea] | 500 to 2000
Nc1nc(Nc2ccc(Oc3ccnc(C4=NCCN4)c3)cc2)cc(-c2ccccc2)n1 [Example 47, N^4-{4-[2-(4,5-Dihydro-1H-imidazol-2-yl)pyridin-4-yloxy]phenyl}-6-phenylpyrimidine-2,4-diamine] | 500 to 2000
CCOC(=O)c1cc(Oc2cncc(Cl)c2)ccc1Nc1cc(-c2ccccc2)nc(N)n1 [Example 60, ethyl 2-[(2-amino-6-phenylpyrimidin-4-yl)amino]-5-[(5-chloropyridin-3-yl)oxy]benzoate] | 500 to 2000

Same assay, conditions: Homo sapiens, HCT-116, 72 h compound exposure, greater than 2 μM

SMILES | IC50 [nM]
COC[C@@H]1CCCN1c1ccnc(Oc2ccc(Nc3cc(-c4ccccc4)nc(N)n3)cc2)c1 [Example 43] | > 2000
CC(C)NCc1cc(Oc2ccc(Nc3cc(-c4ccccc4)nc(N)n3)cc2)ccn1 [Example 44, N^4-[4-({2-[(isopropylamino)methyl]pyridin-4-yl}oxy)phenyl]-6-phenylpyrimidine-2,4-diamine] | > 2000

Same assay, conditions: Homo sapiens, HCT-116, 72 h compound exposure, less than or equal to 500 nM

SMILES | IC50 [nM]
CCc1cc(Oc2ccc(Nc3cc(-c4ccccc4)nc(N)n3)cc2)ccn1 [Example 1, N^4-{4-[(2-ethylpyridin-4-yl)oxy]phenyl}-6-phenyl-pyrimidine-2,4-diamine] | ≤ 500
Cc1cc(Oc2ccc(Nc3cc(-c4ccccc4)nc(N)n3)cc2)ccn1 [Example 2, N^4-{4-[(2-methylpyridin-4-yl)oxy]phenyl}-6-phenylpyrimidine-2,4-diamine] | ≤ 500
NC(=O)c1cc(Oc2cccc(Nc3cc(-c4ccccc4)nc(N)n3)c2)ccn1 [Example 3, 4-{3-[(2-amino-6-phenylpyrimidin-4-yl)amino]phenoxy}pyridine-2-carboxamide] | ≤ 500
CNC(=O)c1cc(Oc2cccc(Nc3cc(-c4ccccc4)nc(N)n3)c2)ccn1 [Example 4, 4-{3-[(2-amino-6-phenylpyrimidin-4-yl)amino]phenoxy}-N-methylpyridine-2-carboxamide] | ≤ 500
N#Cc1cc(Oc2ccc(Nc3cc(-c4ccccc4)nc(N)n3)c(F)c2)ccn1 [Example 6, 4-{4-[(2-amino-6-phenylpyrimidin-4-yl)amino]-3-fluorophenoxy} pyridine-2-carbonitrile hydrochloride] | ≤ 500
Cc1cc(Oc2ccc(Nc3cc(-c4ccccc4)nc(N)n3)cc2F)ccn1 [Example 7, N^4-{3-fluoro-4-[(2-methylpyridin-4-yl)oxy]phenyl}-6-phenylpyrimidine-2,4-diamine] | ≤ 500
N#Cc1cc(Oc2ccc(Nc3cc(-c4ccccc4)nc(N)n3)cc2)ccn1 [Example 8, 4-{4-[(2-amino-6-phenylpyrimidin-4-yl)amino]phenoxy}pyridine-2-carbonitrile] | ≤ 500
CNC(=O)c1cc(Oc2cccc(Nc3cc(-c4ccoc4)nc(N)n3)c2)ccn1 [Example 9, 4-(3-{[2-amino-6-(3-furyl)pyrimidin-4-yl]amino}phenoxy)-N-methylpyridine-2-carboxamide] | ≤ 500
Nc1nc(Nc2ccc(Oc3ccc([N+](=O)[O-])cc3)cc2)cc(-c2ccccc2)n1 [Example 11, N^4-[4-(4-nitrophenoxy)phenyl]-6-phenylpyrimidine-2,4 diamine] | ≤ 500
COc1ccc(Oc2ccc(Nc3cc(-c4ccccc4)nc(N)n3)cc2)cc1 [Example 13, N^4-[4-(4-methoxyphenoxy)phenyl]-6-phenylpyrimidine-2,4-diamine] | ≤ 500
COC(=O)c1cc(Oc2ccc(Nc3cc(-c4ccccc4)nc(N)n3)cc2)ccn1 [Example 19, methyl 4-{4-[(2-amino-6-phenylpyrimidin-4-yl)amino]phenoxy}pyridine-2-carboxylate] | ≤ 500
Nc1nc(Nc2ccc(Oc3ccnc(C(=O)N4CCOCC4)c3)cc2)cc(-c2ccccc2)n1 [Example 21, N^4-(4-{[2-(morpholin-4-ylcarbonyl)pyridin-4-yl]oxy}phenyl)-6-phenylpyrimidine-2,4-diamine] | ≤ 500
Nc1nc(Nc2ccc(Cc3ccnc(C(F)(F)F)c3)cc2)cc(-c2ccccc2)n1 [Example 33, 6-phenyl-N^4-[4-(2-trifluoromethyl-pyridin-4-ylmethyl)-phenyl]-pyrimidin-2,4-diamine] | ≤ 500
Nc1nc(Nc2ccc(Cc3ccnc(Cl)c3)cc2)cc(-c2ccccc2)n1 [Example 34, N4*-{4-[(2-chloropyridin-4-yl)methyl]phenyl}-6-phenylpyrimidine-2,4-diamine] | ≤ 500
N#Cc1cc(Cc2ccc(Nc3cc(-c4ccccc4)nc(N)n3)cc2)ccn1 [Example 35, 4-[4-(2-amino-6-phenyl-pyrimidin-4-ylamino)-benzyl]-pyridine-2-carbonitrile] | ≤ 500
Nc1nc(Nc2ccc(Oc3ccnc(C(F)(F)F)c3)cc2)cc(-c2ccccc2)n1 [Example 37, 6-phenyl-N^4-(4-{[2-(trifluoromethyl)pyridin-4-yl]oxy}phenyl)pyrimidine-2,4-diamine] | ≤ 500
Nc1nc(Nc2ccc(Oc3cc[n+]([O-])c(C(F)(F)F)c3)cc2)cc(-c2ccccc2)n1 [Example 38, N^4-(4-{[1-oxido-2-(trifluoromethyl)pyridin-4-yl]oxy}phenyl)-6-phenylpyrimidine-2,4-diamine] | ≤ 500
CS(=O)(=O)NCc1cc(Oc2ccc(Nc3cc(-c4ccccc4)nc(N)n3)cc2)ccn1 [Example 40, N-[(4-{4-[(2-amino-6-phenylpyrimidin-4-yl)amino]-phenoxy}pyridin-2-yl)methyl]methanesulfonamide] | ≤ 500
Nc1nc(Nc2ccc(Oc3ccnc(C(=O)NCCO)c3)cc2)cc(-c2ccccc2)n1 [Example 45, 4-[4-(2-Amino-6-phenylpyrimidin-4-ylamino)phenoxy]pyridine-2-carboxylic acid (2-hydroxyethyl)amide] | ≤ 500
Nc1nc(Nc2ccc(Oc3ccnc(-c4nnn[nH]4)c3)cc2)cc(-c2ccccc2)n1 [Example 46, 6-phenyl-N^4-{4-[2-(1H-tetrazol-5-yl)pyridin-4-yloxy]phenyl}pyrimidine-2,4-diamine] | ≤ 500
Nc1nc(Nc2ccc(Oc3ccnc(Cl)c3)cc2)cc(-c2ccccc2)n1 [Example 48, N^4-[4-(2-Chloro-pyridin-4-yloxy)-phenyl]-6-phenyl-pyrimidine-2,4 diamine] | ≤ 500
COC[C@@H]1CCCN1c1cc(Oc2ccc(Nc3cc(-c4ccccc4)nc(N)n3)cc2)ccn1 [Example 49, (S)—N^4-{4-[2-(2-Methoxymethylpyrrolidin-1-yl)pyridin-4-yloxy]phenyl}-6-phenylpyrimidine-2,4-diamine] | ≤ 500
Nc1nc(Nc2ccc(Oc3ccnc(C(F)(F)F)c3)cc2)cc(-c2ccc(NC(=O)[C@@H](N)CO)cc2)n1 [Example 50, 2-amino-N-(4-{2-amino-6-[4-(2-trifluoromethylpyridin-4-yloxy)phenylamino]pyrimidin-4-yl}phenyl)-3-hydroxypropionamide] | ≤ 500
Nc1nc(Nc2ccc(Oc3ccnc(C(F)(F)F)c3)cc2)cc(-c2ccc(O)cc2)n1 [Example 51, 4-{2-amino-6-[(4-{[2-(trifluoromethyl)pyridin-4-yl]oxy}phenyl)amino]pyrimidin-4-yl}phenol] | ≤ 500
Nc1nc(Nc2ccc(Oc3ccnc(C(F)(F)F)c3)cc2)cc(-c2ccc(OS(N)(=O)=O)cc2)n1 [Example 52, sulfamic acid, 4-{2-amino-6-[4-(2-trifluoromethylpyridin-4-yloxy)phenylamino]pyrimidin-4-yl}phenyl ester] | ≤ 500
Nc1cc(Oc2ccc(Nc3cc(-c4ccccc4)nc(N)n3)cc2)ccn1 [Example 53, N^4-[4-(2-aminopyridin-4-yloxy)phenyl]-6-phenylpyrimidine-2,4-diamine] | ≤ 500
Nc1nc(Nc2ccc(Oc3ccnc(/C=C/CCO)c3)cc2)cc(-c2ccccc2)n1 [Example 58, (3E)-4-(4-{4-[(2-amino-6-phenylpyrimidin-4-yl)amino]phenoxy}pyridin-2-yl)but-3-en-1-ol] | ≤ 500
